Laboratory results published in ChEMBL document CHEMBL3576768, “α-Glucosidase Inhibitors from a Xylaria feejeensis Associated with Hintonia latiflora” (J Nat Prod, 2015).

Legend:
[1] = (§1) Inhibition of Saccharomyces cerevisiae alpha-glucosidase using pNPG as substrate preincubated for 10 mins followed by substrate addition measured after 20 mins by spectrophotometric analysis
Saccharomyces cerevisiae = test: as §1

C[C@@H]1OC(=O)c2c(O)cccc2[C@@H]1O
IC50 [1]: 549 µM | inhibition (Saccharomyces cerevisiae): Dose-dependent effect

C[C@@H]1OC(=O)c2c(O)cccc2[C@H]1O
IC50 [1]: 441 µM | inhibition (Saccharomyces cerevisiae): Dose-dependent effect

C[C@H]1O[C@H](O[C@H]2[C@H](O)[C@@H](O)[C@@H](O[C@H]3[C@H](O)[C@@H](O)C(O)O[C@@H]3CO)O[C@@H]2CO)[C@H](O)[C@@H](O)[C@@H]1N[C@H]1C=C(CO)[C@@H](O)[C@H](O)[C@H]1O (stereo not given in full) [ACARBOSE]
IC50 [1]: 545 µM
